Measured values: PMC12067741, “Inhibition of SOD1 trimerization is a novel drug target for ALS disease” (Translational Neurodegeneration, 2025)
Read-outs that look alike come from different tables or passages of the source.

Assays:
[1] = tested on: MT-SOD1 inclusions in SK-N-SH cells; assay: SOD1 inclusions by immunofluorescence in SK-N-SH cells; assay type: cell-based; conditions: SK-N-SH cells expressing MT-SOD1, 24 h
Experimental: Cells on coverslips were washed with PBS, fixed with 4% PFA for 30 min at room temperature and then permeabilized in 0.1% Triton X-100/PBS for 10 min. After incubation in blocking solution (goat serum diluted 1:200 in PBS) for 1 h, cells were incubated with primary antibodies in blocking buffer for overnight at 4 °C. Finally, the cells were incubated with FITC- or Rhodamine-conjugated secondary antibody at 4 °C for 4 h. The nucleus was stained with 4, 6-diamidino-2-phenylindole and the endoplasmic reticulum (ER) was stained using the ER-Tracker Red dye for 10 min. Cells were washed three times with PBS, then the coverslips were mounted with the mounting solution (H-5501; Vector Laboratories, Burlingame, CA) and observed by fluorescence microscopy using Zeiss Apotome 2 (Software; Axiovision 4.8, Baden-Württemberg, Germany) and CELENA X (Logos Biosystems, Annandale, VA).
Cells with SOD1 aggregation were counted in the fluorescent images. Depending on the intensity of SOD1, cells with SOD1 aggregates were counted in randomly selected fields and quantified as a percentage to the total cells counted. In addition, to calculate the colocalization of the three colors of SOD1, we counted the cells where the three colored images overlapped at a point of high intensity. […]
Fig. S1. […] After incubation, cells were fixed with 4 % PFA and observed under the fluorescence microscope. […]

SOD1^G93A−Tg mice = assay: Efficacy of i.p. injection in SOD1G93A-Tg ALS mice; assay type: in vivo; conditions: for reduction of rotarod latency to fall at 16 weeks compared to 11 weeks: vehicle ~43%
Experimental: To evaluate the therapeutic effect of PRG-A-04, SOD1^G93A−Tg mice received intraperitoneal injection of vehicle (DMSO, n = 6) or PRG-A-04 (20 mg/kg, n = 4; 50 mg/kg, n = 6) twice per week from 11 weeks for 6–8 weeks. WT mice (n = 5) served as negative littermates of the SOD1^G93A−Tg mice. WT mice were treated in the same conditions.
For histology analysis, SOD1^G93A−Tg mice received intraperitoneal injections starting from 11 weeks and sacrificed at 17 weeks (vehicle, n = 3; PRG-A-04 20 mg/kg, n = 2, 50 mg/kg, n = 2) and 19 weeks (vehicle, n = 2; PRG-A-04 50 mg/kg, n = 2). WT male mice (n = 5) were sacrificed at 17 weeks. Mice were sacrificed by i.p. (intraperitoneal) injection of avertin at a volume of 150–200 μL. The spinal cord was obtained and fixed in 4% paraformaldehyde for 48 h and embedded in paraffin blocks. The embedded tissues (cervical region of the spinal cord) were sectioned at 5 µm by Accu-Cut ® SRMTM 200 Rotary Microtome (Sakura Finetek, Torrance, CA) and transferred onto adhesive-coated slides (Marienfeld Laboratory Glassware, Lauda-Königshofen, Germany). After deparaffin and rehydration, the slides were stained with hematoxylin and eosin (H&E) to detect spinal cord neurons. In addition, immunohistochemistry (IHC) with antibodies for neuronal markers MAP2 (ab32454, Abcam, Cambridge, UK) and NeuN (ab177487, Abcam) as well as for SOD1 (GTX100554, Genetex, Irvine, CA) was performed. The intensity of MAP2 and NeuN was calculated with the Image J software (version 1.54p, National Institute of Mental Health, MD). For counting intensity, IHC images were divided using the “color deconvolution” function in Image J software and the DAB signal was quantified.
Age-matched WT mice were tested as positive control. […] Mouse movement was recorded.
PRG-A-04 (20 mg/kg or 50 mg/kg) was injected intraperitoneally (i.p., twice a week) in 11-week-old SOD1^G93A−Tg mice to verify its efficacy in vivo (Fig. S4a). […] We performed the rotarod test to monitor muscle strength.
11 weeks old mice were injected with 20 mg/kg and 50 mg/kg, twice per week for 6~8 weeks and checked the motility with rotarod test. To check the histology analysis, some mouse groups were sacrificed and the spinal cord was isolated at 16 weeks and 18 weeks. b, […]
(d) The 11 weeks old mice were injected with PRG-A-04 for 6 weeks and sacrificed at 16 weeks. The cervical spinal cord was stained with H&E. Scale bar; […]. (e) Representative images […]
The tissue lysates were harvest with TNNI buffer and incubation for 30 min then fixed with 0.04% glutaraldehyde (Glu) for 30min. Samples were separated using SDS-PAGE. Arrow indicates human SOD1(hSOD1- […]
MAP2 (e) and the number of NeuN positive cells (f) were counted with Image J software.

plasma proteins = tested on: plasma proteins
Source text: Fig. S8. Preclinical data of PRG-A-04 a Plasma protein binding b CYP inhibition(direct) […]
d Mouse Brain Tissue penetration
For the convenience of calculation, […]

SMILES: COc1cc(C=CCOC2Cc3cc4ccc(=O)oc4cc3OC2(C)C)ccc1[N+](=O)[O-] (centres unmarked) [PRG-A-04]
- effect on SOD1 inclusions [1]: suppressed SOD1 inclusions
- reduction of rotarod latency to fall at 16 weeks compared to 11 weeks (SOD1^G93A−Tg mice; i.p. 20 mg/kg twice a week from 11 weeks (first of 'respectively')): 14.4%
- reduction of rotarod latency to fall at 16 weeks compared to 11 weeks (SOD1^G93A−Tg mice; i.p. 50 mg/kg twice a week from 11 weeks (second of 'respectively')): 20.1%
- motor function in open field test (SOD1^G93A−Tg mice; i.p. 50 mg/kg, age of 18 weeks): significantly improved motor function
- SOD1 inclusion bodies in spinal cord (SOD1^G93A−Tg mice; i.p. 20 and 50 mg/kg, immunohistochemistry): reduced SOD1 inclusion bodies
- toxicity regarding body weight loss (SOD1^G93A−Tg mice; i.p. 20 or 50 mg/kg twice a week): no cytotoxicity regarding body weight loss
- number of neurons in cervical region of the spinal cord (SOD1^G93A−Tg mice; i.p., histology at 16 weeks, versus vehicle): increased the number of neurons
- insolubility and oligomerization of SOD1 in spinal cord (SOD1^G93A−Tg mice; i.p., western blotting of cervical spinal cord lysates): decrease of insolubility and oligomerization of SOD1
- % Bound (plasma proteins; Dog plasma, concentration 0.2 uM): > 99.93%
- % Bound (plasma proteins; Dog plasma, concentration 2 uM): 99.95%
- % Bound (plasma proteins; Dog plasma, concentration 10 uM): 99.92%
- % Bound (plasma proteins; Human plasma, concentration 0.2 uM): > 99.92%
- % Bound (plasma proteins; Human plasma, concentration 2 uM): 99.97%
- % Bound (plasma proteins; Human plasma, concentration 10 uM): 99.97%
- % Bound (plasma proteins; Monkey plasma, concentration 0.2 uM): > 99.94%
- % Bound (plasma proteins; Monkey plasma, concentration 2 uM): 99.93%
- % Bound (plasma proteins; Monkey plasma, concentration 10 uM): 99.89%
- % Bound (plasma proteins; Mouse plasma, concentration 0.2 uM): 99.91%
- % Bound (plasma proteins; Mouse plasma, concentration 2 uM): 99.92%
- % Bound (plasma proteins; Mouse plasma, concentration 10 uM): 99.87%
- % Bound (plasma proteins; Rat plasma, concentration 0.2 uM): 99.9%
- % Bound (plasma proteins; Rat plasma, concentration 2 uM): 99.91%
- % Bound (plasma proteins; Rat plasma, concentration 10 uM): 99.86%
